Assays:
[1] = molecular target: T1, MAO-A of the brain of a rat (Rattus norvegicus, UniProt P21396); test: in vitro inhibition of MAO-A, total rat brain homogenate; format: biochemical; conditions: preincubation of 60', 1 g of tissue/16 ml phosphate buffer pH 7.4, substrate [14C]5-hydroxytryptamine 480 μM, read-out: IC 50 (A), MAO-A
T1 construct: total rat brain homogenate, with 1 g of tissue/16 ml of phosphate buffer; from tissue; host or cells: rat brain, total homogenate
T1 sequence (P21396 1-526): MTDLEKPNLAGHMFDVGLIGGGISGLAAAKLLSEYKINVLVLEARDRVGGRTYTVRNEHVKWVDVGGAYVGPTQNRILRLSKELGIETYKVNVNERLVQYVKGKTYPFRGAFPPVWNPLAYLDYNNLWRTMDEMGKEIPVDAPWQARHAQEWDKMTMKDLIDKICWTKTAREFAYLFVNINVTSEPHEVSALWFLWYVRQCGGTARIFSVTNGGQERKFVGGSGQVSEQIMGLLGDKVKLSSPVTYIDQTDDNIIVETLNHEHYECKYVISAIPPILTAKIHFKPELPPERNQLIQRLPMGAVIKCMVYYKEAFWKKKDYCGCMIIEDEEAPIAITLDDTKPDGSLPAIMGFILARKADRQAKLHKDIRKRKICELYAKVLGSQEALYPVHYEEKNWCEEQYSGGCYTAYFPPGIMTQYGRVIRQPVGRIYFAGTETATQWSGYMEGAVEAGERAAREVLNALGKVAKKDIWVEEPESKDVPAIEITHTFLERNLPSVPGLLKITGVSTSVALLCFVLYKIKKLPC
Protocol: (§1) This activity has been given prominence by the implementation of the protocol described by P. DOSTERT et al. in J. Pharm. Parmacol., 1983, 35, 161-165; this protocol is based on enzymatic tests carried out with or without preincubation in particular for 60 minutes and it allows measurement in vitro of the inhibiting effect with regard to the MAO-A and the MAO-B of the brain of a rat.
(§2) In Table 4 below are shown the inhibiting concentrations 50 (IC 50) for the A and B forms of MAO, obtained for a number of compounds (I) according to the invention following the above protocol applied to a total rat brain homogenate, with 1 g of tissue/16 ml of phosphate buffer of pH 7.4.
(§3) Substrate concentrations: [^14 C]5hydroxytryptamine = 480 μM,
(§4) [^14 C]phenylethylamine = 12 μM for the study of the inhibition o

[2] = molecular target: T2, MAO-B of the brain of a rat (Rattus norvegicus, UniProt P19643); test: in vitro inhibition of MAO-B, total rat brain homogenate; format: biochemical; conditions: preincubation of 60'; for ratio IC 50 (A) / IC 50 (B) (head is drawing 22): selectivity MAO-B over MAO-A, 60 min; for IC50: total rat brain homogenate, 1 g of tissue/16 ml phosphate buffer pH 7.4, substrate [14C]phenylethylamine 12 μM, read-out: IC 50 (B), MAO-B
T2 construct: total rat brain homogenate, with 1 g of tissue/16 ml of phosphate buffer; from tissue; host or cells: rat brain, total homogenate
T2 sequence (P19643 1-520): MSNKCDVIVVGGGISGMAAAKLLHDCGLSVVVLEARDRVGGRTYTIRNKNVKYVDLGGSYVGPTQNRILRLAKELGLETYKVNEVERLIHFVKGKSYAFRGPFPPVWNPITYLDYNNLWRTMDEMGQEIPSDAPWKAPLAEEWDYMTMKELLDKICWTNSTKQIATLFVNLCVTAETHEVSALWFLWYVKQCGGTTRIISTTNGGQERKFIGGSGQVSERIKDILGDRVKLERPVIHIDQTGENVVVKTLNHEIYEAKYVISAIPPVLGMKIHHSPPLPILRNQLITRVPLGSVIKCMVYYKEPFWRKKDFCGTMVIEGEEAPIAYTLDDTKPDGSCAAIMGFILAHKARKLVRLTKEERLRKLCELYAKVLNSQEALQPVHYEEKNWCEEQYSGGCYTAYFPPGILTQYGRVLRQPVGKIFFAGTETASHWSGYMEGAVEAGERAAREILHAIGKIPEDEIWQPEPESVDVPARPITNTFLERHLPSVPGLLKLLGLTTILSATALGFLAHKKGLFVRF
Protocol: as §1, §2, §3, §4

SMILES	IC50 [1]	ratio IC 50 (A) / IC 50 (B) (head is drawing 22) [2]	IC50 [2]
CN[C@H](C)[C@@H]1CN(c2ccc(OCc3cccc(Cl)c3)cc2)C(=O)O1 [compound 340179]	18.3 µM	16	1.16 µM
C[C@H](N)[C@H]1CN(c2ccc(OCc3cccc(Cl)c3)cc2)C(=O)O1 (relative stereo) [compound 340750]	210 µM	553	0.38 µM
C[C@@H](N)[C@H]1CN(c2ccc(OCc3cccc(Cl)c3)cc2)C(=O)O1 [compound 340321]	> 100 µM	> 19	5.34 µM
CN[C@@H](C)[C@@H]1CN(c2ccc(OCc3cccc(Cl)c3)cc2)C(=O)O1 [compound 340333]	> 100 µM	> 78	1.28 µM
CN[C@@H](C)[C@H]1CN(c2ccc(OCc3cccc(Cl)c3)cc2)C(=O)O1 [compound 340271]	7.43 µM	95	0.078 µM
CN[C@@H](C)[C@H]1CN(c2ccc(OCc3cccc(Cl)c3)cc2)C(=O)O1 (relative stereo) [compound 340745]	15 µM	300	0.05 µM
CN[C@H](C)[C@H]1CN(c2ccc(OCc3cccc(Cl)c3)cc2)C(=O)O1 [compound 340276]	148 µM	110	1.35 µM

Results, then the compound that gave them:

IC50 [1]	ratio IC 50 (A) / IC 50 (B) (head is drawing 22) [2]	IC50 [2]	SMILES
> 1000 µM	> 6250	0.16 µM	C[C@@H]([C@H]1CN(c2ccc(OCc3cccc(Cl)c3)cc2)C(=O)O1)N(C)C (relative stereo) [compound 340742]
> 30 µM	> 10	300 µM	COc1cccc(COc2ccc(N3C[C@H]([C@@H](C)N(C)C)OC3=O)cc2)c1 (relative stereo) [compound 340749]
> 1000 µM	> 4000	0.25 µM	COc1cccc(COc2ccc(N3C[C@H]([C@H](C)N(C)C)OC3=O)cc2)c1 [compound 340744]
> 100 µM	> 1887	0.053 µM	C[C@@H]([C@H]1CN(c2ccc(OCc3cccc(Cl)c3)cc2)C(=O)O1)N(C)C [compound 200562, erythro stereoisomer (-) (R, S) of 3-[4-(3-chlorobenzyloxy)phenyl] 5-(1-dimethylaminoethyl) oxazolidin-2-one]
> 1000 µM	> 625	1.6 µM	C[C@H]([C@@H]1CN(c2ccc(OCc3cccc(Cl)c3)cc2)C(=O)O1)N(C)C [compound 340746]
1000 µM	2500	0.4 µM	COc1cccc(COc2ccc(N3C[C@H]([C@H](C)N(C)C)OC3=O)cc2)c1 (relative stereo) [compound 340743]
> 100 µM	> 61	1.64 µM	C[C@H](N)[C@@H]1CN(c2ccc(OCc3cccc(Cl)c3)cc2)C(=O)O1 [compound 340366]
> 1000 µM	> 67	15 µM	COc1cccc(COc2ccc(N3C[C@@H]([C@@H](C)N(C)C)OC3=O)cc2)c1 [compound 340747]
300 µM	> 15	20 µM	C[C@H]([C@H]1CN(c2ccc(OCc3cccc(Cl)c3)cc2)C(=O)O1)N(C)C (relative stereo) [compound 340748]
